The text below walks through data of ChEMBL document CHEMBL6153109, “Switching Roles─Exploring Concentration-Dependent Agonistic versus Antagonistic Behavior of Integrin Ligands” (J Med Chem, 2025).

The structures appear in SMILES notation. Activity calls are given as the source filed them. The rule behind the calls is not given here.

In data set [1] the target is T1, Integrin alpha-V/beta-3 (Homo sapiens, UniProt P05106+P06756). As to the kind of experiment: Agonist activity at integrin alphaVbeta3 in human M21 cells assessed as increase in p-ERK1/2 expression at 1 uM incubated for 24 hrs by Western blot analysis. In kind it is cell-based. The note with it: filed as agonist.
Data set [2] has as its target T2, Integrin alpha-5/beta-1 (Homo sapiens, UniProt P05556+P08648). As to the kind of experiment: Agonist activity at integrin alpha5beta1 in human OV-MZ-6 cells assessed as increase in p-FAK expression at 1 uM incubated for 24 hrs by Western blot analysis. It is filed as cell-based. For orientation: Immunoblotting shows a protein as a band on a membrane.
The target of data set [3] is T2, Integrin alpha-5/beta-1. The data set can be described thus: Agonist activity at integrin alpha5beta1 in human OV-MZ-6 cells assessed as increase in p-ERK1/2 expression at 1 uM incubated for 24 hrs by Western blot analysis. It is filed as cell-based.
The target of data set [4] is T1, Integrin alpha-V/beta-3. As to the kind of experiment: Agonist activity at integrin alphaVbeta3 in human M21 cells assessed as increase in FAK expression at 1 nM incubated for 5 to 60 mins by Western blot analysis. In kind it is cell-based. To be noted: time 5-60 min.
Data set [5] concerns the target T3, Integrin alpha-V/beta-6 (Homo sapiens, UniProt P06756+P18564). As to the kind of experiment: Agonist activity at integrin alphaVbeta6 in human HN cells assessed as fold increase in p-FAK expression at 1 nM measured within 30 mins by Western blot analysis (reference value: 1). In kind it is cell-based. To be noted: filed as agonist.
Data set [6] has as its target T3, Integrin alpha-V/beta-6. The data set can be described thus: Agonist activity at integrin alphaVbeta6 in human HN cells assessed as fold increase in p-FAK expression at 1 uM measured within 30 mins by Western blot analysis (reference value: 1). In kind it is cell-based. The note with it: filed as agonist.
In data set [7] the target is T2, Integrin alpha-5/beta-1. As to the kind of experiment: Agonist activity at integrin alpha5beta1 in human OV-MZ-6 cells assessed as fold increase in FAK expression at 1 nM measured after 5 mins by Western blot analysis (reference value: 1). In kind it is cell-based. To be noted: filed as agonist.
The target of data set [8] is T2, Integrin alpha-5/beta-1. The data set can be described thus: Agonist activity at integrin alpha5beta1 in human OV-MZ-6 cells assessed as increase in FAK expression at 1 nM measured after 30 to 60 mins by Western blot analysis. It is filed as cell-based. The note with it: time 30-60 min.
Data set [9] concerns the target T2, Integrin alpha-5/beta-1. The data set can be described thus: Agonist activity at integrin alpha5beta1 in human OV-MZ-6 cells assessed as increase in FAK expression at 1 uM measured after 5 to 60 mins by Western blot analysis. It is filed as cell-based. The note with it: time 5-60 min.
In data set [10] the target is T1, Integrin alpha-V/beta-3. As to the kind of experiment: Agonist activity at integrin alphaVbeta3 in human M21 cells assessed as increase in p-FAK expression at 1 nM incubated for 5 to 60 mins by Western blot analysis. In kind it is cell-based. The note with it: time 5-60 min.
Data set [11] concerns OV-MZ-6. The data set can be described thus: Inhibition of cell migration in human OV-MZ-6 cells expressing integrin alpha5beta1 assessed as delay in wound gap closure at 1 uM measured within 24 hrs by wound scratch assay. It is filed as functional, cell-based.
Data set [12] relates to OV-MZ-6. As to the kind of experiment: Inhibition of cell migration in human OV-MZ-6 cells expressing integrin alpha5beta1 assessed as delay in wound gap closure at 1 uM measured within 72 hrs by wound scratch assay. It is filed as functional, cell-based.
Another data set relates to M21. As to the kind of experiment: Inhibition of cell migration in human M21 cells expressing integrin alphaVbeta3 assessed as delay in wound gap closure at 1 to 1000 nM measured after 9 to 72 hrs by wound scratch assay. In kind it is functional, cell-based. The note with it: dose 1-1000 nM, time 9-72 hrs.
Data set [13] relates to OV-MZ-6. The data set can be described thus: Inhibition of cell migration in human OV-MZ-6 cells expressing integrin alpha5beta1 assessed as delay in wound gap closure at 1 nM measured after 9 to 72 hrs by wound scratch assay. It is filed as functional, cell-based. To be noted: time 9-72 hrs.
The subject of data set [14] is OV-MZ-6. The data set can be described thus: Inhibition of cell adhesion in human OV-MZ-6 cells expressing integrin alpha5beta1 at 1 uM measured after 48 hrs by microscopic imaging analysis. In kind it is functional, cell-based.
For data set [15], the system named is OV-MZ-6. The data set can be described thus: Inhibition of cell adhesion in human OV-MZ-6 cells expressing integrin alpha5beta1 at 1 nM measured after 48 hrs by microscopic imaging analysis. It is filed as functional, cell-based.
Data set [16] in a line: Drug localization in cell membrane of human M21 cells overexpressing integrin alphaVbeta3 at 1 uM measured within 3 mins by CellMask green staining based fluorescence analysis. In kind it is ADME, cell membranes. To be noted: m21, 0.05 h.
Data set [17] in a line: Drug localization in cell membrane of human M21 cells overexpressing integrin alphaVbeta3 at 1 uM measured at 30 mins by CellMask green staining based fluorescence analysis. In kind it is ADME, cell membranes. The note with it: m21, 0.5 h.
A short description of data set [18]: Drug uptake in human M21 cells overexpressing integrin alphaVbeta3 at 1 uM measured at 60 to 300 mins by Hoechst 33342 staining based fluorescence analysis. The note with it: m21, 1 µM, time 60-300 min. In kind it is ADME, cell-based.
Data set [19] in a line: Drug uptake in human OV-MZ-6 cells overexpressing integrin […] at 1 uM measured after 300 mins by Hoechst 33342 staining based fluorescence analysis. To be noted: ov-mz-6, 5 h. In kind it is ADME, cell-based.

As for `C#CCCC(=O)NCCCOc1cc(C)c(C(=O)N[C@@H](CNC(=O)CNC(=O)c2cccc(NC(=N)N)c2)C(=O)O)c(C)c1`, at Integrin alpha-V/beta-3 [1], the outcome was Active. The result on Integrin alpha-5/beta-1 [2], on Integrin alpha-5/beta-1 [3], on Integrin alpha-V/beta-3 [4], on Integrin alpha-5/beta-1 [8] and at Integrin alpha-5/beta-1 [9] was inactive. In addition, the fold change (FC) on Integrin alpha-V/beta-6 [5] came out at 4; on Integrin alpha-V/beta-6 [6] it was 3; at Integrin alpha-5/beta-1 [7] it was 1.6. Besides, at Integrin alpha-V/beta-3 [10], the Activity entry was “Not active; Slight Increase Compared To Control Observed”. Moreover, the inhibition result in the data set with OV-MZ-6 [11] and in the data set with OV-MZ-6 [14] was “Active” each time. The inhibition result in the data set on OV-MZ-6 [12], with M21, in the data set with OV-MZ-6 [13] and in the data set on OV-MZ-6 [15] was “inactive” in each case.

Take `COc1ccnc(NCCCOc2ccc(C[C@@H](CC(=O)O)NC(=O)c3ccc(OCCCNC(=O)CCCCCNC(=O)CCCCC[N+]4=C(/C=C/C=C/C=C5/N(C)c6ccc7ccccc7c6C5(C)C)C(C)(C)c5c4ccc4ccccc54)cc3)cc2)c1`: the Drug uptake entry in [16], in data set [17], in data set [18] and in [19] was “Active” each time.
